In ChEMBL document CHEMBL1201862, “PubChem BioAssay data set” (2004) one finds EC50, IC50 and AC50 data, which are given here for 33 compounds.

Activity calls are given as the source filed them.

The target in experiment [1] is T1, Heat shock factor protein 1 (Mus musculus, UniProt P38532).
T1 sequence (P38532 whole entry): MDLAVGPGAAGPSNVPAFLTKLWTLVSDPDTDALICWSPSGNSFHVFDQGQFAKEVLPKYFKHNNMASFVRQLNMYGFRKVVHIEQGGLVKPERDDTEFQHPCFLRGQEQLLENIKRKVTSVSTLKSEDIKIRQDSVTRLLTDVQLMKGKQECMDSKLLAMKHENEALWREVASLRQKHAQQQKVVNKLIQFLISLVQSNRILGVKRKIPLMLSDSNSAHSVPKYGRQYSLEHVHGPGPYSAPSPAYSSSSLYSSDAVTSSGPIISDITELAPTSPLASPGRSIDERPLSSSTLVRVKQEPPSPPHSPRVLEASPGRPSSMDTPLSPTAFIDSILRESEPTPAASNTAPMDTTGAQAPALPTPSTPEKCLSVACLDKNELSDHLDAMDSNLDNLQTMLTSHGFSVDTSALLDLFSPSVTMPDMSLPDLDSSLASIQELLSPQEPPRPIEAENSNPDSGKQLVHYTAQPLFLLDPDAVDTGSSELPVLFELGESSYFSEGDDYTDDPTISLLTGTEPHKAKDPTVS
Kind of experiment: enhancement of HSF1-driven luciferase signal – cell-based, NIH3T3, luminescence, dose retest, confirmation (AID 435004).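 Further: stress induced by proteasome inhibitor MG132 added 30 min after compound; luciferase reporter driven by HSF1 response element in NIH3T3 cells; actives raise luminescence as potentiators of the MG132 stress response.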 It is filed as functional.

The target in experiment [2] is T2, Calpain-2 catalytic subunit (Sus scrofa, UniProt P43367).
T2 sequence (P43367 whole entry): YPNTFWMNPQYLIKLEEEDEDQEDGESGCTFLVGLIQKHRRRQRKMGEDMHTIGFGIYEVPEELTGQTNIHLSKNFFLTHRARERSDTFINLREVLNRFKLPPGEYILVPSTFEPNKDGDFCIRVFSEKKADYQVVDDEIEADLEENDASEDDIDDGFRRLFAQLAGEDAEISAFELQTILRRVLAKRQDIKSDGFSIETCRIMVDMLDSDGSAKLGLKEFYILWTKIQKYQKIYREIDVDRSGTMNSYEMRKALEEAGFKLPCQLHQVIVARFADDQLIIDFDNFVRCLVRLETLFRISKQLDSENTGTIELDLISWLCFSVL
Kind of experiment: m-calpain protease blockers, concentration series – biochemical, fluorogenic peptide substrate, dose response (AID 1420). It is filed as functional.

The target of experiment [3] is T3, Carboxy-terminal domain RNA polymerase II polypeptide A small phosphatase 1 (Homo sapiens, UniProt Q9GZU7).
T3 sequence (Q9GZU7 whole entry): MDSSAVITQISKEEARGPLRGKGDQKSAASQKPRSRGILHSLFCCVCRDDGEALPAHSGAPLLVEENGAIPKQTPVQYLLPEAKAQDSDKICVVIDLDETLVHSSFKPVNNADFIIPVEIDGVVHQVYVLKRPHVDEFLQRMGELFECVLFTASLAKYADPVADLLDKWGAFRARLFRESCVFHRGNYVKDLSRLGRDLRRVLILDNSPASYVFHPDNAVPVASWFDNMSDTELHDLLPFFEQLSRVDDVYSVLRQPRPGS
Kind of experiment: CTDSP1 inhibitors, concentration-response, biochemical, absorbance readout, ultra-high-throughput screen actives (AID 540297). It is filed as functional.

For experiment [4], the target named is FAD-linked sulfhydryl oxidase ALR (Homo sapiens, UniProt P55789). Description: ALR-catalysed DTT oxidation blockers – biochemical, H2O2 detection, luminescence, cherry-pick, dose response (AID 493248).
Sequence of FAD-linked sulfhydryl oxidase ALR (P55789 whole entry): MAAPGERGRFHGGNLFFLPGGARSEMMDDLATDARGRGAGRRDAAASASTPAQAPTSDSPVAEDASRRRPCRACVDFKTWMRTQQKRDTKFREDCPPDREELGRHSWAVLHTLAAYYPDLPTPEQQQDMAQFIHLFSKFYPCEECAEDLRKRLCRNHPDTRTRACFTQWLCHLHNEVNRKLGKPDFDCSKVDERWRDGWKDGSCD
Experiment [5] deals with T4, RNA-binding protein pos-1 (Caenorhabditis elegans, UniProt G5EF15).
T4 sequence (G5EF15 whole entry): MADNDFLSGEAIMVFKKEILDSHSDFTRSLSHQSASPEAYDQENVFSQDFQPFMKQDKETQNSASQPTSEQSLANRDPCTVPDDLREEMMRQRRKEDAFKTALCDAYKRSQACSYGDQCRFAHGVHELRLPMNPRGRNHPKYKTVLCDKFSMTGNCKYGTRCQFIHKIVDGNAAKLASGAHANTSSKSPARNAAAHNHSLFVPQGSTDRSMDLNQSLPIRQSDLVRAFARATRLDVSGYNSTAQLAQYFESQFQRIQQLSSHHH
Kind of experiment: disruptors of C. elegans POS-1 RNA interaction – biochemical, fluorescence polarization, dose response (AID 1964).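 Further: purified POS-1 fused to maltose binding protein made in E. coli; potency of compounds blocking POS-1 binding to fluorescent RNA.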 Background: Fluorescence polarisation rises when a labelled molecule tumbles more slowly, as on binding a larger partner.

The target in experiment [6] is T5, Zinc finger protein mex-5 (Caenorhabditis elegans, UniProt Q9XUB2).
T5 sequence (Q9XUB2 whole entry): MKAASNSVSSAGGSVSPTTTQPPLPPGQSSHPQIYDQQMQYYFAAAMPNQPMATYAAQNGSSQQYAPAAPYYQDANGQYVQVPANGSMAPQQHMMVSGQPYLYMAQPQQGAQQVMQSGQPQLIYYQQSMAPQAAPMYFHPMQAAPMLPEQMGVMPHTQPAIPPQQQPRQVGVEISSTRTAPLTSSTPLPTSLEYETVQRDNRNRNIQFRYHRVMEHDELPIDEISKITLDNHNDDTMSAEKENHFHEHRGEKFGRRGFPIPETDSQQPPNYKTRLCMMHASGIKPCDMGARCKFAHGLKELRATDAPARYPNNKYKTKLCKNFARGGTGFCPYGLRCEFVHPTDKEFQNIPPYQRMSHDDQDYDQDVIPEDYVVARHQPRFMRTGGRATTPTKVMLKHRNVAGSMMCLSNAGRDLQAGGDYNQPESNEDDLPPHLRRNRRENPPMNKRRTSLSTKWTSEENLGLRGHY
Kind of experiment: potency of MEX-5 RNA-binding blockers – biochemical, C. elegans, fluorescence polarization, dose response (AID 1960).

Experiment [7] in a line: fluconazole-exposed Candida albicans growth modulators – fluorescence, retest, confirmation (AID 2467). In kind it is functional, cell-based.
The nature of experiment [8]: HIV-1 AD8 envelope cell-cell fusion blockers – cherry-pick, dose response (AID 652062).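 Further: luciferase signal from cell-cell fusion driven by HIV-1 clade B AD8 Env; potency is for inhibitors of fusion seen as a drop in luminescence.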 In kind it is functional, cell-based.
In another experiment the target is Cytochrome P450 3A4 (Homo sapiens, UniProt P08684).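 Further: CYP3A4 tested as one member of a cytochrome P450 panel screen.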
Sequence of Cytochrome P450 3A4 (P08684 whole entry): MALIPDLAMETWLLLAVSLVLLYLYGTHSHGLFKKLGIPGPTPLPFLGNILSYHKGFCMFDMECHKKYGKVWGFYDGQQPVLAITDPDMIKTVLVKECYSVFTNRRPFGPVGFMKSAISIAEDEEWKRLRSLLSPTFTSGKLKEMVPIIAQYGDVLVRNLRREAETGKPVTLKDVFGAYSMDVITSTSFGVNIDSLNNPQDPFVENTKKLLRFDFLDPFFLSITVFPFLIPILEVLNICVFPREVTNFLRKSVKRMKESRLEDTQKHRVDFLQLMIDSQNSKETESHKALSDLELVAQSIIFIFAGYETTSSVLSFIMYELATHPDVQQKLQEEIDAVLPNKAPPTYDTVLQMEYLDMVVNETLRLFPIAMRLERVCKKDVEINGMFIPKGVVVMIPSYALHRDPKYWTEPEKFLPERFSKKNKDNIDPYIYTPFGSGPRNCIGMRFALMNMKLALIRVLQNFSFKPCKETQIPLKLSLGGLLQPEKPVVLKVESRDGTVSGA
A short description of experiment [9]: NIH-3T3 fibroblast cytotoxicity, dose response, cytotoxicity control, cell-based, fluorescence, Alamar Blue, secondary assay (AID 2327).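 Further: NIH-3T3 mouse fibroblasts cultured with fluconazole at 8 µg/mL.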 In kind it is functional. (In general: Alamar Blue is a resazurin reagent that responds to reducing activity.)
Experiment [10] in a line: viability of HCT116 lacking mutant beta-catenin – cell-based, human colon tumor, dose response (AID 1045).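 Further: HCT116 colon tumor cells with beta catenin knocked out; cells exposed to compound for 60 hours.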 It is filed as functional.
Experiment [11] in a line: viability of PTEN-deleted HCT116 cells – cell-based, HCT116 PTEN knockout, dose response (AID 1047).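 Further: HCT116 colon tumor cells with PTEN knocked out; cells exposed to compound for 60 hours before readout; potency for loss of cell viability measured by luminescence.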 In kind it is functional.
Another experiment concerns the target Nonstructural protein 1 (Influenza A virus, UniProt Q194T2). In kind it is functional, Influenza A virus (A/California/07/2009(H1N1)).
Experiment [12] has as its target T6, Polyadenylate-binding protein 1 (Homo sapiens, UniProt P11940). Kind of experiment: MLLE binding blockers, Cy5 peptide tracer – biochemical, fluorescence polarization, Cy5-PAM2 peptide, secondary, miRNA deadenylation inhibitor project, dose response (AID 602260). In kind it is functional. The conditions noted are these: read-out: IC50_Mean.
Experiment [13] addresses T6, Polyadenylate-binding protein 1. Kind of experiment: MLLE domain peptide-binding blockers, IC50 – biochemical, fluorescence polarization, FITC-PAM2 peptide, dose response (AID 602259). In kind it is functional. The conditions noted are these: read-out: IC50_Mean.

Sequence of Nonstructural protein 1 (Q194T2 whole entry): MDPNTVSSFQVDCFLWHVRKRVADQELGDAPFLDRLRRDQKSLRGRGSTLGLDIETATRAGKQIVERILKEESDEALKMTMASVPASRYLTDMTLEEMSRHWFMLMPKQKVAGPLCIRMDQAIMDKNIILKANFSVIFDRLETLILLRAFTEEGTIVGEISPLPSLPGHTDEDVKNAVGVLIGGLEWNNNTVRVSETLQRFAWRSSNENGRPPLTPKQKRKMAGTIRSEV
T6 sequence (P11940 whole entry, the tested form may be a part): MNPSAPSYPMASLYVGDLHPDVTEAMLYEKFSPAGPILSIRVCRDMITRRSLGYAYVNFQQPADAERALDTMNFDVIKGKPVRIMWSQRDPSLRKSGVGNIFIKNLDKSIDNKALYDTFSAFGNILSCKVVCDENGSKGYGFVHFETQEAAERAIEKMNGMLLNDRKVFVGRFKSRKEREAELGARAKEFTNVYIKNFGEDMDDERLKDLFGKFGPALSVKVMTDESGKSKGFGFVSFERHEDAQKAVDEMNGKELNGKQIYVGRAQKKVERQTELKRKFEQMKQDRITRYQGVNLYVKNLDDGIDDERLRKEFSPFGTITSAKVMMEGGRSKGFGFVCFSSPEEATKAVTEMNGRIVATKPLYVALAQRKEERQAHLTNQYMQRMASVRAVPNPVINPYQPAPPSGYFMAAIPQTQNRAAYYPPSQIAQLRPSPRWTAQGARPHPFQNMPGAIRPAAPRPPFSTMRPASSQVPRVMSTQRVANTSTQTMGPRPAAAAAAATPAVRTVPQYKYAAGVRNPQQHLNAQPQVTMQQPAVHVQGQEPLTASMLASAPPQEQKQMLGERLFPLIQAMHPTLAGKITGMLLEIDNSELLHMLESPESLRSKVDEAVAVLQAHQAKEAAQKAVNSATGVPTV

Turning to `Cc1ccc(NC2OC(CO)C(O)C2O)cc1[N+](=O)[O-]` (stereo unspecified), the EC50 in experiment [1] was > 260 µM (inactive). The IC50 in experiment [2] is on record as > 50 µM (not active).
For `O=C(CCS(=O)(=O)c1ccc(Br)cc1)NC1CCCC1`, the IC50 in [3] was 9.44 µM (active).
The same measure, in the same setting: the same measure for `CC[N+]1(C)CC2CCC(C)(C1)C2(C)C` (stereo unspecified): 27.8 µM (active).
Regarding `CCNc1ccc(S(=O)(=O)N(C)C)cc1NCC(=O)Nc1ccccc1F`, the AC50 in [4] is 1.8 µM (active).
Take `COC(=O)CCC(=O)OC1(C)C(=O)C=C2C=C(C3CC3)OC=C2C1=O` (stereo unspecified): the concentration giving a half-maximal response (EC50) in [5] is 17.7 µM (active); in experiment [6] it was 68.8 µM (inconclusive).
On to `CCCCC(=O)OCC(=O)c1[nH]c(C)c(C(=O)OCC)c1C`, for which the EC50 in [1] was > 260 µM (inactive).
Consider `C=CC[n+]1c(-c2ccc(C)cc2)csc1NNC(=O)Nc1ccccc1`, for which the EC50 in [7] was 1.27 µM (active); in experiment [9], > 150 µM (inconclusive). Moreover, the values for the AC50 (in experiment [8]; at Cytochrome P450 3A4) were 9.27 µM (active) and 3.55 µM (inconclusive), respectively.
As to `CCOC(=O)C(C(=O)OCC)C(C(=O)OCC)N1CCOCC1` (stereo unspecified), the EC50 in experiment [10] was 5.16 µM (active); in [11] it was 6.34 µM (active).
The like results for `COC(=O)C1=C(C)N(c2cc(Cl)cc(Cl)c2)C(=O)C1` were, in that order, 42.9 µM (active) and 35.6 µM (active).
`Cc1cc(S(=O)(=O)N2CCN(c3ccccc3O)CC2)c(C)s1`: the AC50 in experiment [4] is 0.156 µM (active).
The same measure, in the same setting: the result for `COc1ccc(CSc2nc(O)cc(=O)n2CC(C)C)cc1F` reads 0.949 µM (active).
As for `O=C(CN1C(=O)c2cccc3cccc(c23)C1=O)N1CCN(Cc2ccc3c(c2)OCO3)CC1`, on Nonstructural protein 1, the IC50 is > 100 µM (active).
As to `O=C(CSc1nnc(Nc2ccccc2F)s1)NC(=O)CN1CCCC1=O`, the IC50 in [3] was 5.43 µM (active).
In the case of `Cc1cccc(N=Nc2c(O)nc(O)c(C#N)c2C)c1`, the EC50 in experiment [1] is 258 µM (active).
Consider `C#CCOCCOCCOCCNc1nc(N2CCN(C(=O)[C@H]([C@@H](C)CC)n3cc([C@@H](N)CO)nn3)CC2)nc(N2CCN(C(=O)[C@H]([C@@H](C)CC)n3cc([C@@H](N)CC(C)C)nn3)CC2)n1`, for which the values for the EC50 in experiment [5] and in [6] were 24.4 µM (active) and 18 µM (active), respectively. In addition, the IC50 in experiment [12] was > 66 µM (inactive); in experiment [13], 43.1 µM (inactive).
Turning to `Cc1ccc(-c2nc(-c3ccccn3)sc2CC(=O)O)cc1`, in experiment [4], the half-maximal activity concentration (AC50) is 0.226 µM (active).
On to `COc1ccc(CCNCc2ccc(Br)cc2)cc1OC`, for which, in experiment [1], the EC50 was > 260 µM (inactive).
`CCN(CC)c1ccc(Nc2nc(N3CCOCC3)c3ccccc3n2)cc1`: at Nonstructural protein 1, the IC50 is 11.5 µM (active).
Consider `O=C(COC(=O)c1ccccc1O)NCc1ccco1`, for which the IC50 in experiment [3] is 9.53 µM (active).
Regarding `O=C(Nc1nnc(-c2cccnc2)o1)c1cccc([N+](=O)[O-])c1`, in experiment [4], the AC50 is 1.61 µM (active).
Take `O=c1[nH]c(CN2CCc3ccccc3C2)nc2ccccc12`: the EC50 in experiment [5] and in experiment [6] was > 300 µM (not active) throughout. For the same compound, the IC50 in [12] and in [13] was > 66 µM (inactive) throughout.
For `COc1ccccc1NC(=O)C1=C(C)N(c2ccccc2)C(S)=NC1c1cccc(C(F)(F)F)c1` (stereo unspecified), the EC50 in experiment [10] was 13.7 µM (active); in [11], 14.3 µM (active).
Take `O=C(Nc1c(C(=O)c2ccccc2)oc2ccccc12)c1cc(-c2ccccc2O)n[nH]1`: the EC50 in experiment [1] is > 260 µM (inactive).
Take `COc1cccc(N2C(=O)NC(=O)/C(=C/Nc3c(C)n(C)n(-c4ccccc4)c3=O)C2=O)c1`: the EC50 in experiment [5] and in [6] was > 300 µM (not active) throughout.
Turning to `CC(=O)Nc1ccc(N2C(=O)CSC2c2ccccc2[N+](=O)[O-])cc1` (stereo unspecified), in experiment [4], the half-maximal activity concentration (AC50) was 0.517 µM (active).
Consider `CN(C)c1ccc(CN(Cc2ccco2)C(=O)c2ccco2)cc1`, for which the half-maximal activity concentration (AC50) in experiment [4] was 0.822 µM (active).
Turning to `O=C(Nc1ccc2c(c1)C(=O)NC2=O)c1cccc(C(F)(F)F)c1`, the IC50 in experiment [3] is 9.33 µM (active).
Take `CC(C)OC(=O)CC(=O)CSc1nc2c(cc1C#N)CCC2`: the EC50 is 8.4 µM (active) in experiment [10] and 5.82 µM (active) in experiment [11].
With `COc1ccc(Br)cc1CNc1ccc2[nH]c(O)nc2c1`, the AC50 in experiment [4] was 1.08 µM (active).
Take `O=C(N/N=C/c1ccncc1)c1ccc(NC(=O)c2cccc(Cl)c2)cc1`: in experiment [3], the IC50 is 13.9 µM (active).
Regarding `NC(=O)c1cccc(/N=C/c2cc(Cl)cc(Cl)c2O)c1`, the EC50 in experiment [5] and in [6] was > 300 µM (not active) each time.
Regarding `O=C(NCc1ccccn1)C(=O)N/N=C/c1ccccc1O`, the IC50 at Nonstructural protein 1 is 14 µM (active).
For `COc1ccc(C2C(C#N)=C(/N=C/N3CCOCC3)OC3=C2C(=O)CC(C)(C)C3)cc1OC` (stereo unspecified), the EC50 in [5] and in experiment [6] was > 300 µM (not active) throughout.

As usually defined, the EC50 is the midpoint of the concentration-response curve. What is called AC50 is the midpoint of the concentration-response curve, whichever way the signal moves.
